Laboratory results reported in BindingDB's records for doi:10.1021/jm00376a004 (1984).

Experiment: Compound was evaluated for average apparent binding constant (Kd ) using Scatchard analysis to dTMP synthetase enzyme from chick embryo

Compound O=c1nc(NO)ccn1[C@H]1C[C@H](O)[C@@H](COP(=O)(O)O)O1 [Phosphoric acid mono-[3-hydroxy-5-(4-hydroxyamino-2-oxo-2H-pyrimidin-1-yl)-tetrahydro-furan-2-ylmethyl] ester] has a Kd of 1000 nM.
